One experiment concerns PC3 cells. Nature of the experiment: XTT assay for cell viability, PC3 cells. It counts as cell-based, human. The following applies: Homo sapiens, PC-3, cell viability. In short, it runs like this:
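PC3 cells seeded at 1000 cells/well, grown 24 h, then exposed to serial dilutions of compound for 96 h. Viability read by XTT dye at 37° C, absorbance 465 nm. EC50 from sigmoidal dose-response fit.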
In general terms: Tetrazolium assays rely on reduction of a dye to a coloured formazan, in cell work by metabolically active cells.

Experiment [1] concerns pS6RP(S235/236), PC3 cells. Nature of the experiment: In-cell Western assay, pS6RP(S235/236) in PC3 cells. The following applies: Homo sapiens, PC-3, In-cell Western. Format: cell-based, human. In short, it runs like this:
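Overnight-seeded PC3 cells were treated 2 h with serially diluted compound, then fixed and immunostained with phospho-specific primary antibodies and Eu-labelled secondary. Time-resolved Eu signal read at 615 nm (ex 340 nm), normalised by Hoechst 33258 staining (ex 355/em 460 nm); IC50 from sigmoidal dose-response fit.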

For another experiment, the target named is T1, mTOR kinase (Homo sapiens, UniProt P42345).
T1 construct: purchased Millipore, USA
Put plainly: mTOR kinase TR-FRET assay. Format: biochemical. The following applies: read-out: mTO R. The method, boiled down:
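Compounds preincubated 60 min with mTOR (5 ng) in HEPES pH 7.5, EGTA, MnCl2; ULight-p70 S6K Thr389 peptide (50 nM) and ATP (20 μM) then added, 60 min at room temperature. EDTA-stopped, Eu-anti-phospho antibody detection by TR-FRET (665/615 nm); IC50 from variable-slope sigmoidal fit.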
Background: In TR-FRET formats the signal depends on donor and acceptor labels being close together.

For experiment [2], the target named is T2, PI3Kα (wild-type), P110/P85α (Homo sapiens, UniProt P42336).
T2 construct: made in house; host or cells: SF9 insect cells
Nature of the experiment: PI3 Kinase TR-FRET assay, PI3Kα (wild-type). Format: biochemical. In short, it runs like this:
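Sf9-expressed His-purified P110/P85α (5 ng) preincubated 60 min RT with compound and PIP2 in buffer with 40 mM MgCl2, 5 mM DTT; reaction started with ATP (PIP2 and ATP both 10 μM), 30 min RT. PIP3 detected by TR-FRET displacement, 665/615 nm ratio; IC50 from dose-response curves.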

Some results are limits rather than exact numbers.

T2 sequence (P42336 whole entry): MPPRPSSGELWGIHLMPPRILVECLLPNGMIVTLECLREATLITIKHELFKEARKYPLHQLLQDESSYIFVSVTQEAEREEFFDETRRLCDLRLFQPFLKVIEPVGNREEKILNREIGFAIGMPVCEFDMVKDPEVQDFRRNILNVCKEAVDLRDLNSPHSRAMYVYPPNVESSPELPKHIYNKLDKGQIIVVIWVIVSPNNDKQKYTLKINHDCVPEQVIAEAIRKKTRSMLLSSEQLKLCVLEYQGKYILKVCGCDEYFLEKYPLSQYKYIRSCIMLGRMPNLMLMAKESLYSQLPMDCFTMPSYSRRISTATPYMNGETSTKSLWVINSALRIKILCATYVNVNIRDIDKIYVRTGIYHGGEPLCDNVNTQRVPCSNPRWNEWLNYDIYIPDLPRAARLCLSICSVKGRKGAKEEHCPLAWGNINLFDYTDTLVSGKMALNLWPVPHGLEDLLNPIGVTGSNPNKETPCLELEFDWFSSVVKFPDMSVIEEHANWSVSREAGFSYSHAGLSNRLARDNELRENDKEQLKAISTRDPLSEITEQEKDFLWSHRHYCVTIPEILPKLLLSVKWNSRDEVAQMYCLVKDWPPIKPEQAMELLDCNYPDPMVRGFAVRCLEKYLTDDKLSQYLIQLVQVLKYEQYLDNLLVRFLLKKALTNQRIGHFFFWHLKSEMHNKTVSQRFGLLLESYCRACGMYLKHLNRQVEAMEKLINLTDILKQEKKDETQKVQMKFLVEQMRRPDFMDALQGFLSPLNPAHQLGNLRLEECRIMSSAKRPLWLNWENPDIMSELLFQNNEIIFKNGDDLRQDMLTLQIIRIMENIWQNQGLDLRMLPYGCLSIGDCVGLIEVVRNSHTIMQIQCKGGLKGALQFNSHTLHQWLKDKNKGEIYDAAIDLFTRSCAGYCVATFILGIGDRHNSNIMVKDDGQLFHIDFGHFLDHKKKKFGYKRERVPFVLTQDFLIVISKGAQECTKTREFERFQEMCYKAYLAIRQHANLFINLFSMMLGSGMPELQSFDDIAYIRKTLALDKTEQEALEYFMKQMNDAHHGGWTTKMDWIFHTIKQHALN
T2 sequence (P27986 whole entry partner): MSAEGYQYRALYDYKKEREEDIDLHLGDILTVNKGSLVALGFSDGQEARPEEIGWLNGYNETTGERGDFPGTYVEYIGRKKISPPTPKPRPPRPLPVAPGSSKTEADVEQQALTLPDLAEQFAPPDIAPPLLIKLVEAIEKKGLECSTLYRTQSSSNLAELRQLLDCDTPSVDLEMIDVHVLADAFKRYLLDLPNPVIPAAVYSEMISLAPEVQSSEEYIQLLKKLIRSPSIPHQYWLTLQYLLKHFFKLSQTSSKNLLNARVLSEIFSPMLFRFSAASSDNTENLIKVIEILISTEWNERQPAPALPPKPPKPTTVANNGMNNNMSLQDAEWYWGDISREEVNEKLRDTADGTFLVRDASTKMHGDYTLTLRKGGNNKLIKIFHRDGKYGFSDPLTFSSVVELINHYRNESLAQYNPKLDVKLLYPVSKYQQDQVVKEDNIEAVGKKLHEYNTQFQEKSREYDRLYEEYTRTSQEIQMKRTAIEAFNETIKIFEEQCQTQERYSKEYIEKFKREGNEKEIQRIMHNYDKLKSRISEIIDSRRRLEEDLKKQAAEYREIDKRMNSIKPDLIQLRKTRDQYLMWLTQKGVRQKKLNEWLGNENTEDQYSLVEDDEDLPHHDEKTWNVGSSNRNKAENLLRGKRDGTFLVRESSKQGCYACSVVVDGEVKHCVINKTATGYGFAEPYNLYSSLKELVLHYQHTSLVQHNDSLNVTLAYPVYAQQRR

Take `Cc1ccc(-c2ccc3c(N4CCOCC4)nc(-c4ccc(NC(=O)Nc5ccc(C(=O)N(C)C)nc5)nc4)nc3c2)o1` [Example 129, N,N-dimethyl-5-(3-(5-(7-(5-methylfuran-2-yl)-4-morpholino-quinazolin-2-yl)pyridin-2-yl)ureido)picolinamide]: the IC50 with PC3 cells is 501 to 5000 nM; in experiment [1] it was under 100 nM; at mTOR kinase, 50 to 200 nM; in experiment [2], under 50 nM.
Taken in the same sequence, the figures for `CN(C)C(=O)c1ccc(NC(=O)Nc2ccc(-c3nc(N4CCOCC4)c4ccc(-c5cccc(S(C)(=O)=O)c5)cc4n3)cc2F)cn1` [Example 130, 5-(3-(2-fluoro-4-(7-(3-(methylsulfonyl)phenyl)-4-morpholino-quinazolin-2-yl)phenyl)ureido)-N,N-dimethylpicolinamide] were 201 to 10000 nM, 201 to 10000 nM, under 50 nM and under 50 nM.
On the same counts, the results for `Cc1noc(C)c1-c1ccc2c(N3CCOCC3)nc(-c3ccc(NC(=O)Nc4ccc(C(=O)N(C)C)cc4)c(F)c3)nc2c1` [Example 131, 4-(3-(4-(7-(3,5-dimethylisoxazol-4-yl)-4-morpholino-quinazolin-2-yl)-2-fluorophenyl)ureido)-N,N-dimethyl-benzamide] are 201 to 10000 nM, 201 to 10000 nM, 50 to 200 nM and under 50 nM.
Turning to `CC1CN(c2nc(-c3ccc(NC(=O)Nc4ccc(C(=O)N(C)C)cc4)c(F)c3)nc3cc(-c4cncnc4)ccc23)CC(C)O1` (stereo not drawn) [Example 132, 4-(3-(4-(4-(2,6-dimethylmorpholino)-7-(pyrimidin-5-yl)quinazolin-2-yl)-2-fluorophenyl)ureido)-N,N-dimethyl-benzamide], the IC50 in the experiment on PC3 cells was 201 to 10000 nM; in experiment [1], 201 to 10000 nM; on mTOR kinase, 50 to 200 nM; in experiment [2], 201 to 10000 nM.
For `CN(C)C(=O)c1ccc(NC(=O)Nc2ccc(-c3nc(N4CCOCC4)c4ncc(-c5cnn(C)c5)cc4n3)cc2)c(F)c1` [Example 134, 3-fluoro-N,N-dimethyl-4-(3-(4-(7-(1-methyl-1H-pyrazol-4-yl)-4-morpholino-pyrido[3,2-d]pyrimidin-2-yl)phenyl)ureido)-benzamide], the IC50 is 201 to 10000 nM in the experiment with PC3 cells, 201 to 10000 nM in experiment [1], under 50 nM at mTOR kinase and under 50 nM in experiment [2].
Regarding `CN(C)C(=O)c1ccc(NC(=O)Nc2ccc(-c3nc(N4CCOCC4)c4ccc(-c5ccncc5)cc4n3)cc2F)cc1` [Example 137, 4-(3-(2-fluoro-4-(4-morpholino-7-(pyridin-4-yl)quinazolin-2-yl)phenyl)ureido)-N,N-dimethyl-benzamide], the IC50 in the experiment on PC3 cells was 201 to 10000 nM; in experiment [1] it was 201 to 10000 nM; on mTOR kinase, 50 to 200 nM; in experiment [2] it was 50 to 200 nM.
For `CN(C)C(=O)c1ccc(NC(=O)Nc2ccc(-c3nc(N4CCOCC4)c4ccccc4n3)cc2)cc1` [Example 179, N,N-dimethyl-4-(3-(4-(4-morpholino-quinazolin-2-yl)phenyl)ureido)-benzamide], the IC50 in the experiment with PC3 cells was 201 to 10000 nM; in experiment [1] it was 201 to 10000 nM; on mTOR kinase, under 50 nM; in experiment [2], 50 to 200 nM.
Consider `COc1ccc2c(N3CCOCC3)nc(-c3ccc(NC(=O)Nc4ccc(C(=O)N(C)C)cc4)cc3)nc2c1` [Example 180, 4-(3-(4-(7-methoxy-4-morpholino-quinazolin-2-yl)phenyl)ureido)-N,N-dimethyl-benzamide], for which the IC50 was 201 to 10000 nM with PC3 cells, 201 to 10000 nM in experiment [1], under 50 nM at mTOR kinase and under 50 nM in experiment [2].
Regarding `COc1cc2nc(-c3ccc(NC(=O)Nc4ccc(C(=O)N(C)C)cc4)cc3)nc(N3CCOCC3)c2cc1OC` [Example 181, 4-(3-(4-(6,7-dimethoxy-4-morpholino-quinazolin-2-yl)phenyl)ureido)-N,N-dimethyl-benzamide], the IC50 in the experiment with PC3 cells was 201 to 10000 nM; in experiment [1], 201 to 10000 nM; on mTOR kinase, under 50 nM; in experiment [2], 50 to 200 nM.
